No end group written: not given here.
Tested on: Chicken Embryo
Assay: Chicken embryo safety test (HET-CAM, SN/T 2329-2009), irritation score method
Conditions: dose up to 500 ppm

ESETRILLQ [EQ-9, ESETRILLQ]
Irritation Classification (HET-CAM): non-irritant | irritation score (IS) (HET-CAM): 0.35 | safety issue (FIG. 1): no safety issue

Reference: patent EP4400508A1, “ACTIVE PEPTIDE AND USE THEREOF” (Harvest Biotech Co., Ltd, priority 2021, dated 2024)
